Measurements as given in US20210179683A1, “METHOD OF RESPONSE PREDICTION FOR BCL2 FAMILY PROTEIN TARGETING DRUG” (Proteina Co., Ltd., priority 2019, published 2021).
Blank lines part the entries; values can stand above or below the molecule they belong to.

Key:
BCL2-BAD interaction = target: T1, BCL2-BAD interaction (Homo sapiens, UniProt P10415); test: PPI between endogenous BCL2 of drug-treated cells and exogenous BAD-GFP (single-molecule pull-down, TIRF); assay type: cell-based; settings: 24 hours
T1 construct: endogenous in cells; host or cells: HL60, OCI-LY3
Description: (§1) Blood cancer cells (The Korean Cell Line Bank and ATCC; HL-60 (CVCL_0002), OCI-LY3 (CVCL_8800)), Ramos (CVCL_0597), U937, THP1, and SUDHL8) and the blood cancer cell pellets from buffy coats of patients were each suspended in a lysis buffer (HEPES 50 mM NaCl 150 mM Glycerol 10% (w/v) GDN (Digitonin) 1% (w/v) with 2% (w/v) phosphatase inhibitor cocktail ⅔ (P5726, P0044)) and vortexed three times at regular intervals of 10 min. After 30 min, the lysis buffer containing the pellet homogenate was centrifuged at 15,000 g for 10 min. The supernatant thus formed was used as an analysis lysate to be applied to a substrate in subsequent experiments. […]
The cell lysate, prepared in Example 1.2, containing the probe-labeled first protein-interacting protein was added to the substrate prepared in Example 1.3. […] Then, protein-protein interactions were measured as follows:
The substrate was fixedly mounted on a total internal reflection fluorescence and imaged to obtain data for protein-protein interaction (binding). […]
(§2) For example, the method proposed in this Example can quantitatively measure changes in PPI intensity and complex formation after and before treatment with BCL2-targeting inhibitors. […]

BCL-XL = target: T2, BCL-XL (Homo sapiens, UniProt Q07817); test: PPI of endogenous BCL-XL of drug-treated cells with exogenous BAD; assay type: cell-based; settings: HL60 or OCI-LY3 cells, 100 nM, 24 hours, vs DMSO
T2 construct: endogenous in cells; host or cells: HL60, OCI-LY3
Description: as §1
The cell lysate, prepared in Example 1.2, containing the probe-labeled first protein-interacting protein was added to the substrate prepared in Example 1.3. […] Then, protein-protein interactions were measured as follows: […]
as §2

MCL1-NOXA interaction = target: T3, MCL1-NOXA interaction (Homo sapiens, UniProt Q07820); test: PPI between endogenous MCL1 of drug-treated cells and exogenous GFP-NOXA; assay type: cell-based; settings: HL60 or OCI-LY3 cells, 100 nM, 24 hours, vs DMSO
T3 construct: endogenous in cells; host or cells: HL60, OCI-LY3
Description: Excess lysate was washed off with a washing buffer (HEPES 50 mM NaCl 150 mM glycerol 1% GDN 0.03%). Then, protein-protein interactions were measured as follows: […]

BCL2 = BCL2 expression level in drug-treated cells; settings: OCI-LY3 cells, 24 hours
BCL2-BIM interaction [1] = target: T4, BCL2-BIM interaction (Homo sapiens, UniProt P10415); test: BCL2-BIM PPI intensity with inhibitor added together with BIM-GFP to pulled-down BCL2; assay type: binding; settings: various concentrations of inhibitor added with BIM-GFP; BCL2 from HL60
Description: Excess lysate was washed off with a washing buffer (HEPES 50 mM NaCl 150 mM glycerol 1% GDN 0.03%). Then, protein-protein interactions were measured as follows:
This Example can be used to measure direct relationship between targeting inhibitors used and the BCL2 family proteins and related signaling proteins. To this end, BCL2 or MCL1 protein was used as a first protein while BIM-GFP protein served as a first protein-interacting protein.

BAX = BAX level after forced N-terminus exposure with Triton X-100 in lysates of drug-treated cells; assay type: cell-based, human; settings: Staurosporine for one hour or venetoclax for 24 hours; lysis buffer containing Triton X-100
Source text: (§3) In order to achieve this Example, a specimen may be prepared by artificially inducing apoptosis.

BAX (N-terminus exposed) = test: Detection of N-terminus exposed (active conformation) BAX in GDN lysates of drug-treated cells; assay type: cell-based, human; settings: Staurosporine for one hour or venetoclax for 24 hours; lysis buffer containing GDN
Source text: as §3

BCL2-BIM interaction [2] = target: T4, BCL2-BIM interaction; test: BCL2-BIM PPI in bone marrow or whole blood specimens of blood cancer patients over the course of treatment; assay type: in vivo; parameters: PPI counts between BCL2, MCL1, or BCL-XL, all endogenous to the samples from patient 1, and exogenous BIM; from tissue; host or cells: bone marrow and whole blood of blood cancer patients; settings: patient 1; bone marrow after quizartinib, whole blood after venetoclax and LDAC
Source text: The method provided herein can lead to a method for tracing molecular states of a patient with time. In greater detail, the interaction analysis of bone marrow or blood specimens collected at various stages from a blood cancer patient can be used to provide information helpful in determining BCL2 family protein-dependence and whether to administer a corresponding targeted anticancer agent. […] Afterwards, a cord blood stem cell transplantation brought about complete remission in the patient.
In addition, time series diagnosis was performed for patient 2 in the same manner as for patient 1 (FIG. 35). In patient 2, the signaling pathway of the BCL2 family protein could not be controlled by prescribing the FLT3 targeting inhibitor, either. […] From the results obtained above, it is understood that quizartinib prescription cannot bring about any clinical effect.

leukocyte count = test: Leukocyte count of treated blood cancer patients; assay type: in vivo, human
Source text: The method provided herein can lead to a method for tracing molecular states of a patient with time. In greater detail, the interaction analysis of bone marrow or blood specimens collected at various stages from a blood cancer patient can be used to provide information helpful in determining BCL2 family protein-dependence and whether to administer a corresponding targeted anticancer agent. […] Afterwards, a cord blood stem cell transplantation brought about complete remission in the patient. In addition, time series diagnosis was performed for patient 2 in the same manner as for patient 1 (FIG. 35). In patient 2, the signaling pathway of the BCL2 family protein could not be controlled by prescribing the FLT3 targeting inhibitor, either. […] From the results obtained above, it is understood that quizartinib prescription cannot bring about any clinical effect.

T1 sequence (P10415 whole entry): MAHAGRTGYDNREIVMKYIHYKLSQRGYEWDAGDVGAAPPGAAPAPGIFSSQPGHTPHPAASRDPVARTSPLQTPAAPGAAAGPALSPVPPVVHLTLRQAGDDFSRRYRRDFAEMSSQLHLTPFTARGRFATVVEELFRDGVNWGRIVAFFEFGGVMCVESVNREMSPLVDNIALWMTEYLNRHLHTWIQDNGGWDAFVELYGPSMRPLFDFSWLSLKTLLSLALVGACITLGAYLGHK
T4 sequence (P10415 whole entry): as above
T2 sequence (Q07817 whole entry): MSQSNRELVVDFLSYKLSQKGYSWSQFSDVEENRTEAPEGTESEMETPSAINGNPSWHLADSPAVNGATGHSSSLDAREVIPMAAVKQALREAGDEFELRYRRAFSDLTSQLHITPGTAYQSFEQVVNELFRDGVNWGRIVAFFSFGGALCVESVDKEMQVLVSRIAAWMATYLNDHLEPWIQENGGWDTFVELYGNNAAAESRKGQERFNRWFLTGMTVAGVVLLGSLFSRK
T3 sequence (Q07820 whole entry): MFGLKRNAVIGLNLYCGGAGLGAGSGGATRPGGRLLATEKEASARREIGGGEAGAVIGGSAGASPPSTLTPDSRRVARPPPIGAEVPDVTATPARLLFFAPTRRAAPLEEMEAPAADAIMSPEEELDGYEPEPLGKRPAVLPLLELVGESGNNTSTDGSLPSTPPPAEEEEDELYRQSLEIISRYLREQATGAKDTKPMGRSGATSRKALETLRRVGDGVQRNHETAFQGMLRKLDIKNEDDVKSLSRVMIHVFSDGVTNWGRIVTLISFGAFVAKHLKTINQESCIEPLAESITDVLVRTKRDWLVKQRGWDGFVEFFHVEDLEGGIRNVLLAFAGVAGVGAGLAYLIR

BCL2-BAD PPI intensity (BCL2-BAD interaction; HL60 and OCI-LY3 cells, 100 nM, vs DMSO): did not change | BCL-XL PPI intensity (BCL-XL): responsive to none | MCL1-NOXA PPI (MCL1-NOXA interaction): selectively increase
Compound: CO[C@H]1/C=C/C[C@H](C)[C@@H](C)S(=O)(=O)NC(=O)c2ccc3c(c2)N(C[C@@H]2CC[C@H]21)C[C@@]1(CCCc2cc(Cl)ccc21)CO3 [AMG176]

BCL2-BAD interaction (PPI) (BCL2-BAD interaction; OCI-LY3 cells, vs non-treated group): no influences | BCL2-BIM PPI intensity (BCL2-BIM interaction [1]): not affected
Compound: Cc1c2c(nn1C)CSCc1cc(n(C)n1)CSc1cc(c3ccccc3c1)OCCCc1c(C(=O)O)n(C)c3c-2c(Cl)ccc13 [AZD5991]
expression level of BCL2 (BCL2): does not incite a significant change

Compound: CN[C@@H]1C[C@H]2O[C@@](C)([C@@H]1OC)n1c3ccccc3c3c4c(c5c6ccccc6n2c5c31)C(=O)NC4 [Staurosporine]
N-terminus-exposed BAX after artificial exposure with Triton X-100 (BAX): constant values | N-terminus exposed BAX signals (BAX (N-terminus exposed)): increased signals

BCL2-BIM PPI (BCL2-BIM interaction [2]): drastic increase
Compound: CC(C)(C)c1cc(NC(=O)Nc2ccc(-c3cn4c(n3)sc3cc(OCCN5CCOCC5)ccc34)cc2)no1 [quizartinib]
leukocyte count (leukocyte count; patient 1): drastic rise | leukocyte count (leukocyte count; patient 2): about three folds increased
